Legend:
HCC70 cells = assay: Inhibition of cell proliferation, CellTiter-Glo, HCC70; type: cell-based; settings: Homo sapiens, HCC70, 72 h, Efficacy Example 2 (Table 2), 72 h incubation
Method: (§1) The compounds were each prepared with 100% DMSO into 10 mM mother liquor.
(§2) HCC70 cells and OVCAR3 cells were digested and counted. Cells were diluted to an appropriate concentration according to cell density. 100 μL of cells were added to each well of a 96-well plate. Medium wells served as blank control (Min). The cells were incubated overnight in an incubator at 37° C./5% CO2.
(§3) A 200-fold stock solution of a compound was prepared with DMSO, and the compound was diluted with growth medium to a 3-fold stock solution, i.e., […] of each of 200-fold stock solutions of compound at different concentrations was added to 197 μL of medium. 50 μL of diluted compound was added to each well and the mixture was incubated at 37° C./5% CO2 for 72 h.
(§4) The 96-well plate was equilibrated to room temperature before detection. 40 μL of CellTiter-Glo solution was added to each well. The mixture was mixed for 2 min using a horizontal shaker to induce cell lysis. The mixture was incubated at room temperature for 60 min to stabilize […] signals. Fluorescence values were read on ENVISION.
(§5) (1) Data was analyzed by GraphPad Prism 5
(§6) (2) % inhibition rate=(maximum signal−compound signal)/(maximum signal−minimum signal)×100
(§7) (3) Maximum signal: signal of DMSO well
(§8) (4) Minimum signal: signal of medium well
(§9) The effect of SZ-015200, SZ-015256 and SZ-015268 on cell proliferation after incubation with HCC70, OVCAR-3, HCT116 and HCC1806 cells for 3 days was detected according to the method described in Efficacy Example 2, and the results are shown in Table 3.

OVCAR3 cells = assay: Inhibition of cell proliferation, CellTiter-Glo, OVCAR3; type: cell-based; settings: Homo sapiens, OVCAR-3, 72 h, Efficacy Example 2 (Table 2), 72 h incubation
Method: as §1, §2, §3, §4, §5, §6, §7, §8, §9

Row | SMILES | IC50 (HCC70 cells) [nM] | IC50 (OVCAR3 cells) [nM]
1 | CC(C)n1cnc2c(NC3CCN(C(=O)O[C@H]4CCN(C(=O)/C=C/CN(C)C)C4)CC3)ccnc21 [SZ-015286, (S,E)-1-(4-(dimethylamino)but-2-enoyl)pyrrolidin-3-yl 4-((3-isopropyl-3H-imidazo[4,5-b]pyridin-7-yl)amino)piperidine-1-carboxylate] | 570 | 167
2 | CC(C)Nc1cc(NC2CCN(C(=O)O[C@H]3CCN(C(=O)/C=C/CN(C)C)C3)CC2)c2ncn(C(C)C)c2n1 [SZ-015303, (S,E)-1-(4-(dimethylamino)but-2-enoyl)pyrrolidin-3-yl 4-((3-isopropyl-5-(isopropylamino)-3H-imidazo[4,5-b]pyridin-7-yl)amino)piperidine-1-carboxylate] | 129 | 114
3 | CC(C)c1cnc2c(NC3CCN(C(=O)O[C@H]4CCN(C(=O)/C=C/CN(C)C)C4)CC3)nc(C3CC3)nn12 [SZ-015338, (S,E)-1-(4-(dimethylamino)but-2-enoyl)pyrrolidin-3-yl 4-((2-cyclopropyl-7-isopropylimidazo[2,1-f][1,2,4]triazin-4-yl)amino)piperidine-1-carboxylate] | 48.7 | 29.7
4 | CC(C)c1cnn2c(NCc3ccccc3)cc(NC[C@H]3CCNC[C@@H]3O)nc12 [CT7001, reference compound] | 310 | 467
5 | Cc1cc(NC2CCN(C(=O)OC3CN(C(=O)/C=C/CN(C)C)C3)CC2)c2ncn(C(C)C)c2n1 [SZ-015307, (E)-1-(4-(dimethylamino)but-2-enoyl)azetidin-3-yl 4-((3-isopropyl-5-methyl-3H-imidazo[4,5-b]pyridin-7-yl)amino)piperidine-1-carboxylate] | 78 | 139
6 | CC(C)c1cc(NC2CCN(C(=O)O[C@H]3CCN(C(=O)/C=C/CN(C)C)C3)CC2)c2ncn(C(C)C)c2n1 [SZ-015319, (S,E)-1-(4-(dimethylamino)but-2-enoyl)pyrrolidin-3-yl 4-((3,5-diisopropyl-3H-imidazo[4,5-b]pyridin-7-yl)amino)piperidine-1-carboxylate] | 50.5 | 72.5
7 | Cc1nc(NC2CCN(C(=O)O[C@@H]3CCN(C(=O)/C=C/CN(C)C)C3)CC2)n2ncc(C(C)C)c2n1 [SZ-015282, (R,E)-1-(4-(dimethylamino)but-2-enoyl)pyrrolidin-3-yl 4-((8-isopropyl-2-methylpyrazolo[1,5-a][1,3,5]triazin-4-yl)amino)piperidine-1-carboxylate] | 82.4 | 92.1
8 | CC(C)Oc1nc(NC2CCN(C(=O)O[C@H]3CCN(C(=O)/C=C/CN(C)C)C3)CC2)n2ncc(C(C)C)c2n1 [SZ-015332, (S,E)-1-(4-(dimethylamino)but-2-enoyl)pyrrolidin-3-yl 4-((2-isopropoxy-8-isopropylpyrazolo[1,5-a][1,3,5]triazin-4-yl)amino)piperidine-1-carboxylate] | 51.5 | 44.7
9 | CC(C)n1cnc2c(NC3CCN(C(=O)O[C@H]4CCN(C(=O)/C=C/CN(C)C)C4)CC3)nc(CO)nc21 [SZ-015297, (S,E)-1-(4-(dimethylamino)but-2-enoyl)pyrrolidin-3-yl-4-((2-(hydroxymethyl)-9-isopropyl-9H-purin-6-yl)amino)piperidine-1-carboxylate] | 252 | 168
10 | CC[C@H](CO)Nc1cc(NC2CCN(C(=O)O[C@H]3CCN(C(=O)/C=C/CN(C)C)C3)CC2)c2ncn(C(C)C)c2n1 [SZ-015306, (S)-1-((E)-4-(dimethylamino)but-2-enoyl)pyrrolidin-3-yl 4-((5-(((R)-1-hydroxybutan-2-yl)amino)-3-isopropyl-3H-imidazo[4,5-b]pyridin-7-yl)amino)piperidine-1-carboxylate] | 205 | 281
11 | CC(C)Nc1nc(NC2CCN(C(=O)O[C@H]3CCN(C(=O)/C=C/CN(C)C)C3)CC2)c2ncc(C(C)C)n2n1 [SZ-015328, (S,E)-1-(4-(dimethylamino)but-2-enoyl)pyrrolidin-3-yl 4-((7-isopropyl-2-(isopropylamino)imidazo[2,1-f][1,2,4]triazin-4-yl)amino)piperidine-1-carboxylate] | 252 | 110
12 | CC#CC(=O)N1CC[C@@H](OC(=O)N2CCC(Nc3cc(C)nc4c3ncn4C(C)C)CC2)C1 [SZ-015284, (R)-1-(but-2-ynoyl)tetrahydropyrrol-3-yl 4-((3-isopropyl-5-methyl-3H-imidazo[4,5-b]pyridin-7-yl)amino)piperidine-1-carboxylate] | 97.4 | –
13 | CCn1cnc2c(NC3CCN(C(=O)O[C@H]4CCN(C(=O)/C=C/CN(C)C)C4)CC3)ccnc21 [SZ-015285, (S,E)-1-(4-(dimethylamino)but-2-enoyl)pyrrolidin-3-yl 4-((3-ethyl-3H-imidazo[4,5-b]pyridin-7-yl)amino)piperidine-1-carboxylate] | 1050 | 620
14 | CC(C)Oc1nc(NC2CCN(C(=O)O[C@H]3CCN(C(=O)/C=C/CN(C)C)C3)CC2)c2ncc(C(C)C)n2n1 [SZ-015346, (S,E)-1-(4-(dimethylamino)but-2-enoyl)pyrrolidin-3-yl 4-((2-isopropoxy-7-isopropylimidazo[2,1-f][1,2,4]triazin-4-yl)amino)piperidine-1-carboxylate] | 140 | 48.8
15 | COCCNc1cc(NC2CCN(C(=O)O[C@H]3CCN(C(=O)/C=C/CN(C)C)C3)CC2)c2ncn(C(C)C)c2n1 [SZ-015311, (S,E)-1-(4-(dimethylamino)but-2-enoyl)pyrrolidin-3-yl 4-((3-isopropyl-5-((2-methoxyethyl)amino)-3H-imidazo[4,5-b]pyridin-7-yl)amino)piperidine-1-carboxylate] | 95 | 99.6
16 | Cc1nc(NC2CCN(C(=O)O[C@H]3CCN(C(=O)/C=C/CN(C)C)C3)CC2)c2ncn(C(C)C)c2n1 [SZ-015264, (S,E)-1-(4-(dimethylamino)but-2-enoyl)pyrrolidin-3-yl 4-((9-isopropyl-2-methyl-9H-purin-6-yl)amino)piperidine-1-carboxylate] | 181 | 234
17 | CCc1nc(NC2CCN(C(=O)O[C@H]3CCN(C(=O)/C=C/CN(C)C)C3)CC2)c2ncn(C(C)C)c2n1 [SZ-015310, (S,E)-1-(4-(dimethylamino)but-2-enoyl)pyrrolidin-3-yl 4-((2-ethyl-9-isopropyl-9H-purin-6-yl)amino)piperidine-1-carboxylate] | 29.5 | 58.4
18 | CC[C@H](CO)Nc1nc(NC2CCN(C(=O)O[C@H]3CCN(C(=O)/C=C/CN(C)C)C3)CC2)c2ncn(C(C)C)c2n1 [SZ-015295, (S)-1-((E)-4-(dimethylamino)but-2-enoyl)pyrrolidin-3-yl 4-((2-(((R)-1-hydroxybutan-2-yl)amino)-9-isopropyl-9H-purin-6-yl)amino)piperidine-1-carboxylate] | 110 | 62.8
19 | CC(C)Nc1nc(NC2CCN(C(=O)O[C@H]3CCN(C(=O)/C=C/CN(C)C)C3)CC2)n2ncc(C(C)C)c2n1 [SZ-015330, (S,E)-1-(4-(dimethylamino)but-2-enoyl)pyrrolidin-3-yl 4-((8-isopropyl-2-(isopropylamino)pyrazolo[1,5-a][1,3,5]triazin-4-yl)amino)piperidine-1-carboxylate] | 61 | 44
20 | CC#CC(=O)N1CC[C@H](OC(=O)N2CCC(Nc3cc(C)nc4c3ncn4C(C)C)CC2)C1 [SZ-015289, (S)-1-(but-2-ynoyl)tetrahydropyrrol-3-yl 4-((3-isopropyl-5-methyl-3H-imidazo[4,5-b]pyridin-7-yl)amino)piperidine-1-carboxylate] | 117 | –
21 | CC[C@H](CO)Nc1nc(NC2CCN(C(=O)O[C@H]3CCN(C(=O)/C=C/CN(C)C)C3)CC2)n2ncc(C(C)C)c2n1 [SZ-015326, (S)-1-((E)-4-(dimethylamino)but-2-enoyl)pyrrolidin-3-yl 4-((2-(((R)-1-hydroxybutan-2-yl)amino)-8-isopropylpyrazolo[1,5-a][1,3,5]triazin-4-yl)amino)piperidine-1-carboxylate] | 50.3 | 33.2
22 | CC(C)c1cn2c(C(C)C)cnc2c(NC2CCN(C(=O)O[C@H]3CCN(C(=O)/C=C/CN(C)C)C3)CC2)n1 [SZ-015342, (S,E)-1-(4-(dimethylamino)but-2-enoyl)pyrrolidin-3-yl 4-((3,6-diisopropylimidazo[1,2-a]pyrazin-8-yl)amino)piperidine-1-carboxylate] | 419 | 204
23 | Cc1nc(NC2CCN(C(=O)OC3CN(C(=O)/C=C/CN(C)C)C3)CC2)c2ncn(C(C)C)c2n1 [SZ-015308, (E)-1-(4-(dimethylamino)but-2-enoyl)azetidin-3-yl 4-((9-isopropyl-2-methyl-9H-purin-6-yl)amino)piperidine-1-carboxylate] | 92.1 | –
24 | CC(C)n1cnc2c(NC3CCN(C(=O)O[C@H]4CCN(C(=O)/C=C/CN(C)C)C4)CC3)nc(-c3cn[nH]c3)nc21 [SZ-015298, (S,E)-1-(4-(dimethylamino)but-2-enoyl)pyrrolidin-3-yl 4-((9-isopropyl-2-(1H-pyrazol-4-yl)-9H-purin-6-yl)amino)piperidine-1-carboxylate] | 405 | –

— patent US20230115907A1, “HETEROCYCLIC COMPOUND AND PHARMACEUTICAL COMPOSITION, PREPARATION METHOD, INTERMEDIATE AND USE THEREOF” (EVOPOINT BIOSCIENCES CO., LTD., priority 2019, published 2023)
